In brackets after ≈: the same amount, converted by molar mass.
Tests used:
[1] = tested on: E. coli 190317 (TEM-1, SHV-12, CTX-M-15, OXA-1); test: microbe, parasite or virus in culture; format: cell-based
Protocol: Briefly, compounds alone according to the invention were prepared in DMSO and spotted (2 μL each) on sterile polystyrene plates (Corning, 3788). […] Microplates were incubated for 16-20 h at 35° C. in ambient air. The MIC of the compounds was defined as the lowest concentration of said compounds that prevented bacterial growth as read by visual inspection.

AmpC (PAE) = AmpC (PAE) (Pseudomonas aeruginosa, UniProt P24735); test: biochemical
OXA-1 = target: T1, OXA-1 (Escherichia coli, UniProt P13661); test: β-lactamase inhibitory activity, determination of IC50 (nitrocefin hydrolysis); format: biochemical
T1 construct: made in house; host or cells: E. coli

OXA-11 = target: T2, OXA-11 (Pseudomonas aeruginosa, UniProt Q06778); test: as above; format: biochemical
T2 construct: made in house; host or cells: E. coli

OXA-48 = target: T3, OXA-48 (Klebsiella pneumoniae, UniProt Q6XEC0); test: as above; format: biochemical
T3 construct: made in house; host or cells: E. coli

[2] = tested on: P. aeruginosa UFR48 (VIM-2); test: MIC of compounds and synergy with ceftazidime (broth microdilution); format: cell-based; details: MIC of ceftazidime with compound fixed at 4 μg/mL; strain UFR48 (P. aeruginosa)
Summary of the method: (§1)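 MICs were scored by eye after 16-20 h at 35° C (ambient air), using compounds spotted from DMSO.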

[3] = tested on: P. aeruginosa UFR90 (Derepressed ampC, OprD-); test: as above; format: cell-based; details: MIC of ceftazidime with compound fixed at 4 μg/mL; strain UFR90 (P. aeruginosa)
Summary of the method: as §1

[4] = tested on: K. pneumoniae 6299 (TEM-1, SHV-11, OXA-163); test: as above; format: cell-based; details: strain 6299 (K. pneumoniae)
Summary of the method: as §1

[5] = tested on: P. aeruginosa UFR93 (Derepressed ampC, OprD-, MexAB+, MexXY+); test: as above; format: cell-based; details: MIC of ceftazidime with compound fixed at 4 μg/mL; strain UFR93 (P. aeruginosa)
Summary of the method: as §1

[6] = tested on: E. coli 131119 (TEM-1, OXA-48); test: as above; format: cell-based; details: Escherichia coli, 18 h; strain 131119 (E. coli); read-out: MIC compounds of the invention alone
Summary of the method: as §1

E. coli RGN238 (OXA-1) = test: as above; format: cell-based; details: Escherichia coli, 18 h; strain RGN238 (E. coli); read-out: MIC compounds of the invention alone
Summary of the method: as §1

[7] = tested on: P. aeruginosa UFR59 (IMP-29); test: as above; format: cell-based; details: MIC of ceftazidime with compound fixed at 4 μg/mL; strain UFR59 (P. aeruginosa)
Summary of the method: as §1

[8] = tested on: K. pneumoniae BAA-1898 (TEM-1, SHV-11, SHV-12, KPC-2); test: as above; format: cell-based; details: strain BAA-1898 (K. pneumoniae)
Summary of the method: as §1

[9] = tested on: P. aeruginosa CIP105250 (OXA-15); test: as above; format: cell-based; details: strain CIP105250 (P. aeruginosa)
Summary of the method: as §1

[10] = tested on: P. aeruginosa CIP107051 (TEM-24); test: as above; format: cell-based; details: strain CIP107051 (P. aeruginosa)
Summary of the method: as §1

[11] = tested on: P. aeruginosa UFR92 (Derepressed ampC, OprD-); test: as above; format: cell-based; details: MIC of ceftazidime with compound fixed at 4 μg/mL; strain UFR92 (P. aeruginosa)
Summary of the method: (§2)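 First, test compounds prepared in DMSO are spotted on sterile plates. Next, plates incubate at 35° C under ambient air for 16-20 h. Finally, wells are inspected by eye, and the lowest concentration without growth gives the MIC.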

[12] = tested on: E. cloacae P99 (Derepressed ampC); test: as above; format: cell-based; details: strain P99 (E. cloacae)
Summary of the method: as §1

[13] = tested on: P. aeruginosa UFR47 (VIM-1); test: as above; format: cell-based; details: MIC of ceftazidime with compound fixed at 4 μg/mL; strain UFR47 (P. aeruginosa)
Summary of the method: as §2

[14] = tested on: P. aeruginosa UFR35 (OXA-23); test: as above; format: cell-based; details: MIC of ceftazidime with compound fixed at 4 μg/mL; strain UFR35 (P. aeruginosa)
Summary of the method: as §1

OXA-15 = target: T4, OXA-15 (Pseudomonas aeruginosa, UniProt Q51574); test: β-lactamase inhibitory activity, determination of IC50 (nitrocefin hydrolysis); format: biochemical
T4 construct: made in house; host or cells: E. coli

TEM-1 = target: T5, TEM-1 (Escherichia coli, UniProt P62593); test: as above; format: biochemical; details: class (A), 30 min pre-incubation
T5 construct: made in house; host or cells: E. coli

KPC-2 = target: T6, KPC-2 (Klebsiella pneumoniae, UniProt Q9F663); test: as above; format: biochemical
T6 construct: made in house; host or cells: E. coli

AmpC (P99) = AmpC (P99) (Enterobacter cloacae, UniProt P05364); test: biochemical
CTX-M-15 = target: T7, CTX-M-15 (Escherichia coli, UniProt Q9EXV5); test: β-lactamase inhibitory activity, determination of IC50 (nitrocefin hydrolysis); format: biochemical
T7 construct: made in house; host or cells: E. coli

SHV-1 = target: T8, SHV-1 (Klebsiella pneumoniae, UniProt P0AD64); test: as above; format: biochemical
T8 construct: made in house; host or cells: E. coli

[15] = MIC of ceftazidime with compound fixed at 4 μg/mL
[16] = Pseudomonas aeruginosa, 18 h, read-out: MIC compounds of the invention alone

In the case of `Cn1cc(C2=C[C@@H](CN)N3C[C@@H]2N(OS(=O)(=O)O)C3=O)cnc1=O` (relative stereo) [Example 6], the MIC ([1]; Escherichia coli, 18 h, read-out: MIC compounds of the invention alone) is reported as 0.125 µg/mL (≈ 0.35 µM), the “MIC, combination of CAZ and compounds of the invention” value (“MIC, combination” for short) ([1]; MIC of ceftazidime with compound fixed at 4 μg/mL, strain 190317 (E. coli)) is reported as less than 0.125 µg/mL and the IC50 (AmpC (PAE)) is reported as 38000 nM. For the same compound, the IC50 (OXA-1) was 1200 nM, the IC50 (OXA-11) was 1600 nM and the IC50 (OXA-48) was 840 nM. For the same compound, the “MIC, combination” value [2] was less than 0.25 µg/mL, the “MIC, combination” value [3] was less than 0.25 µg/mL and the MIC ([4]; Klebsiella pneumoniae, 18 h, read-out: MIC compounds of the invention alone) was greater than 32 µg/mL. The “MIC, combination” value [4, 15] was 4 µg/mL, the “MIC, combination” value [5] was less than 0.25 µg/mL and the MIC [6] was greater than 32 µg/mL. The MIC (E. coli RGN238 (OXA-1)) was greater than 32 µg/mL, the “MIC, combination” value [7] was less than 0.25 µg/mL and the MIC ([8]; Klebsiella pneumoniae, BAA1898, read-out: MIC compounds of the invention alone) was greater than 32 µg/mL. The “MIC, combination” value [8, 15] was 4 µg/mL, the “MIC, combination” value [9, 15] was 64 µg/mL and the MIC [9, 16] was 32 µg/mL. The “MIC, combination” value [10, 15] was 32 µg/mL, the MIC [10, 16] was 16 µg/mL and the “MIC, combination” value [11] was less than 0.25 µg/mL. For the same compound, the MIC ([12]; Enterobacter cloacae, 18 h, read-out: MIC compounds of the invention alone) was 0.125 µg/mL, the “MIC, combination” value [12, 15] was no more than 0.125 µg/mL and the “MIC, combination” value [13] was less than 0.25 µg/mL. The “MIC, combination” value [14] was less than 0.25 µg/mL, the IC50 (OXA-15) was 68 nM and the IC50 (TEM-1) was 280 nM. The IC50 (KPC-2) was 5100 nM, the IC50 (AmpC (P99)) was 6400 nM and the IC50 (CTX-M-15) was 510 nM. It also gave an IC50 (SHV-1) of 340 nM.

Source: patent US10072006B2 (MUTABILIS, priority 2015, dated 2018)
